The target in one data set is T1, FXIIIa (Homo sapiens, UniProt P00488).
T1 construct: purchased Haematologic Technologies; host or cells: human plasma
T1 sequence (P00488 39-732 limits assumed): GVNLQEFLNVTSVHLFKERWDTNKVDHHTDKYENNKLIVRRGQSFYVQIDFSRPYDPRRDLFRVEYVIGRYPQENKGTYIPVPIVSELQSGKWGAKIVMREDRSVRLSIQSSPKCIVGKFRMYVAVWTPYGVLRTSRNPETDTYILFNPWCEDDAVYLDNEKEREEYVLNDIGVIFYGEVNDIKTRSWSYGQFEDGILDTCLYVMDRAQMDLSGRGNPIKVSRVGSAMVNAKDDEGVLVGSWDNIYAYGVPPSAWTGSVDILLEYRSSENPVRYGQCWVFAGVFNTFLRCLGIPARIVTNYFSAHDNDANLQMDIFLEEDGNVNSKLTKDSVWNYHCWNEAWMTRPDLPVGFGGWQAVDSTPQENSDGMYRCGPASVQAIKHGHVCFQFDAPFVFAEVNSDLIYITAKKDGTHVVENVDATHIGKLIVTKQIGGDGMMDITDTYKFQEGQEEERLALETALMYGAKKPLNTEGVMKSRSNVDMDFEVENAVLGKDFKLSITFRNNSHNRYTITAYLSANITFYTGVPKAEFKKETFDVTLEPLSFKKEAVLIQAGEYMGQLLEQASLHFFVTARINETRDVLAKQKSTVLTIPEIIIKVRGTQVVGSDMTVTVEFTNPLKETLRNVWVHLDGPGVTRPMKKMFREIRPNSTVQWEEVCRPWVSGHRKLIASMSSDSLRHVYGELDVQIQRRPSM
In words: FXIIIa-mediated fibrin(ogen) polymerization by SDS-PAGE. Format: biochemical. Particulars: for effect on FXIIIa-mediated fibrin(ogen) polymerization / γ–γ dimer formation: 5–3000 μM (13), 5–2000 μM (16). The procedure: The effect of inhibitors 13 and 16 on FXIIIa-mediated fibrin(ogen) polymerization was investigated by sodium dodecyl sulfate-polyacrylamide gel electrophoresis (SDS-PAGE), as reported earlier.[36],[49] A solution containing 13 mg/mL fibrinogen and 2.0 μg/mL FXIIIa in Tris-HCl buffer of pH 7.4 containing 10 mM CaCl2 was either incubated with different concentrations of inhibitors 13 (5, 50, 500, 1000, 2000, and 3000 μM) or 16 (5, 50, 500, 1000, 1500, and 2000 μM) or buffer. The resulting mixture was then clotted in the presence of human α-thrombin (2.5 μg/mL). The clots were incubated for 24 h at room temperature before the addition of denaturing buffer and then incubated overnight at 25 °C. Samples were boiled in a water bath for 10 min before centrifugation at 12 000g at 20 °C for 3 min; the supernatants were examined by SDS-PAGE on homogeneous 10% cross-linked gels and stained with Coomassie Brilliant Blue. The first lane contains the protein markers, whereas the second lane contains the cross-linked fibrin(ogen) formed in the presence of human α-thrombin (Figure 7). […] In both cases, the inhibition appears to achieve 100% efficacy similar to the inhibition assay results.
The impact of inhibitors 13 and 16 on FXIIIa-mediated fibrin polymerization was further explored via gel electrophoresis, as previously described.[36],[49] […] The resulting clots were incubated for 24 h at room temperature before the addition of denaturing buffer containing 25 mM NaH2PO4, 1.9% (w/v) SDS, 5.7 M urea, and 1.9% (w/v) DTT, followed by overnight incubation at room temperature. Subsequently, the samples were boiled in a water bath for 10 min, followed by centrifugation at 12,000g at 20 °C for 3 min; the supernatants were then analyzed by SDS-PAGE on homogeneous 10% cross-linked gels and stained with Coomassie Brilliant Blue.

The subject of data set [1] is CaCo-2 heterogeneous human epithelial colorectal adenocarcinoma cells. In words: cell viability, Alamar Blue, CaCo-2. Particulars: CaCo-2, 10 μM, 3 days. In kind it is cell-based. The protocol: To further evaluate the selectivity as well as the potential toxicity of inhibitors, we studied their effects on the clotting times of normal human plasma as well as their effects on the proliferation of three cell lines. On the one hand, the inhibitors’ effects on activated partial thromboplastin time (APTT) and prothrombin time (PT) were measured, as described earlier under in vitro conditions,[52]−[55] using variable concentrations (0–2000 μM) (Table 3). […] On the other hand, the antiproliferative properties of inhibitors 13 and 16 were evaluated in three cell lines of breast (MCF-7), intestine (CaCo-2), and kidney (HEK-293) (Figure 5B), as described earlier.[56] […] Overall, inhibitor 16 can be considered for further development as a potent, selective, and nontoxic inhibitor of human FXIIIa.
HEK-293 human embryonic kidney cells,[66] CaCo-2 heterogeneous human epithelial colorectal adenocarcinoma cells,[67] and MCF-7 human breast carcinoma cells[68] were treated as reported previously.[69],[70] […] Subsequently, fluorescence readings (λEx. = 560 nm and λEm. = 590 nm) were taken using the Synergy H1 multiplate reader (BioTek) to quantify cell numbers both in the absence (utilizing distilled water as a control) and the presence of inhibitors 13 and 16 (at a concentration of 10 μM; incubated for 3 days). […]
In general terms: The colour change of resazurin is a common sign of viable cells or microbes.

From article PMC11256326, “Discovery of Heparin Mimetic, Potent, and Selective Inhibitors of Human Clotting Factor XIIIa” (ACS Omega, 2024) come the findings set out here.

With `Nc1c(/N=N/c2ccc(S(=O)(=O)CCOS(=O)(=O)O)cc2)c(S(=O)(=O)O)cc2cc(S(=O)(=O)O)c(/N=N/c3ccc(S(=O)(=O)CCOS(=O)(=O)O)cc3)c(O)c12` [compound 16], on FXIIIa, the “efficacy of inhibition of fibrin(ogen) polymerization” value is approximately 100% and the “effect on FXIIIa-mediated fibrin(ogen) polymerization / γ–γ dimer formation” value is listed as “concentration-dependently inhibited”. Further, the “effect on proliferation / cell viability” value in data set [1] was “does not significantly affect the proliferation”.

Take `Nc1c(S(=O)(=O)O)cc(Nc2ccc(Nc3nc(Cl)nc(Nc4ccccc4S(=O)(=O)O)n3)c(S(=O)(=O)O)c2)c2c1C(=O)c1ccccc1C2=O` [compound 13]: on FXIIIa, the “efficacy of inhibition of fibrin(ogen) polymerization” value is on record as approximately 100% and the “effect on FXIIIa-mediated fibrin(ogen) polymerization / γ–γ dimer formation” value is recorded as “concentration-dependently inhibited”. Moreover, the “effect on proliferation / cell viability” value in data set [1] is on record as “does not significantly affect the proliferation”.
